Reference: ChEMBL document CHEMBL1201862, “PubChem BioAssay data set” (2004)
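Five concentrations, 48 hours, 96-well plates. The concentration for 50% growth inhibition is given as GI50.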 Active and inactive are the calls of the source. Rule as the data show it: active = GI50 up to about 1.1 µM and inactive = higher.

Columns and labels:
Assay in all cases: DTP human tumour cell line panel, 48 h
[1] = tested on: SN12C
[2] = tested on: NCI-H522
[3] = tested on: SF-295
[4] = tested on: PC-3
[5] = tested on: RPMI-8226
[6] = tested on: Malme-3M
[7] = tested on: CCRF-CEM
[8] = tested on: SNB-19
[9] = tested on: SK-MEL-5
[10] = tested on: NCI-H23
[11] = tested on: HCC 2998
[12] = tested on: MDA-MB-231
[13] = tested on: NCI-H226
[14] = tested on: ACHN
[15] = tested on: HT-29
[16] = tested on: CAKI-1
[17] = tested on: MDA-MB-435
[18] = tested on: SF-539
[19] = tested on: OVCAR-3
[20] = tested on: SK-MEL-28

| SMILES | GI50 [1] | GI50 [2] | GI50 [3] | GI50 [4] | GI50 [5] | GI50 [6] | GI50 [7] | GI50 [8] | GI50 [9] | GI50 [10] | GI50 [11] | GI50 [12] | GI50 [13] | GI50 [14] | GI50 [15] | GI50 [16] | GI50 [17] | GI50 [18] | GI50 [19] | GI50 [20] |
| --- | --- | --- | --- | --- | --- | --- | --- | --- | --- | --- | --- | --- | --- | --- | --- | --- | --- | --- | --- | --- |
| Cc1cc(O)c(-c2cc(O)c(C)cc2O)cc1O | 6.25 µM (inactive) | 4.04 µM (inactive) | 16.7 µM (inactive) | 11.6 µM (inactive) | 1.66 µM (inactive) | 11.1 µM (inactive) | 1.08 µM (active) | 18.9 µM (inactive) | 14.4 µM (inactive) | 10.5 µM (inactive) | 14.1 µM (inactive) | 14.2 µM (inactive) | 18.7 µM (inactive) | 3.94 µM (inactive) | 17.1 µM (inactive) | 6.07 µM (inactive) | 3.05 µM (inactive) | 3.02 µM (inactive) | 2.14 µM (inactive) | 9.23 µM (inactive) |
| OCC(O)C1OC2CC1Nc1ccccc1N2 (stereo not given) | > 100 µM (inactive) | > 100 µM (inactive) | > 100 µM (inactive) | > 100 µM (inactive) | > 100 µM (inactive) | > 100 µM (inactive) | 78.2 µM (inactive) | > 100 µM (inactive) | > 100 µM (inactive) | > 100 µM (inactive) | > 100 µM (inactive) | > 100 µM (inactive) | > 100 µM (inactive) | > 100 µM (inactive) | > 100 µM (inactive) | > 100 µM (inactive) | > 100 µM (inactive) | > 88.7 µM (inactive) | > 100 µM (inactive) | > 100 µM (inactive) |
| CN1CCN(C2CC(=O)c3c(Cl)sc(Cl)c32)CC1 (stereo not given) | 13.2 µM (inactive) | 4.8 µM (inactive) | 21.4 µM (inactive) | 29.4 µM (inactive) | 4.36 µM (inactive) | 23.9 µM (inactive) | 3.45 µM (inactive) | 30.7 µM (inactive) | 30.1 µM (inactive) | 9.12 µM (inactive) | 8.87 µM (inactive) | 20 µM (inactive) | > 42.8 µM (inactive) | 18.5 µM (inactive) | 11.4 µM (inactive) | 21.8 µM (inactive) | 7.05 µM (inactive) | 17.3 µM (inactive) | 16.3 µM (inactive) | 7.57 µM (inactive) |
| COc1ncnc2c1cnn2Cc1cn(CCCCO)nn1 | > 100 µM (inactive) | > 100 µM (inactive) | > 100 µM (inactive) | > 100 µM (inactive) | > 100 µM (inactive) | > 100 µM (inactive) | > 100 µM (inactive) | > 100 µM (inactive) | > 100 µM (inactive) | > 100 µM (inactive) | > 100 µM (inactive) | > 100 µM (inactive) | > 100 µM (inactive) | > 100 µM (inactive) | > 100 µM (inactive) | > 100 µM (inactive) | > 100 µM (inactive) | > 100 µM (inactive) | > 100 µM (inactive) | > 100 µM (inactive) |
| NCCCc1ccc2oc3ccccc3c2c1 | 17 µM (inactive) | 17.1 µM (inactive) | 18.5 µM (inactive) | 18.7 µM (inactive) | 26.4 µM (inactive) | 17.5 µM (inactive) | 11.6 µM (inactive) | 16 µM (inactive) | 14.9 µM (inactive) | 20.6 µM (inactive) | 10.6 µM (inactive) | 17.7 µM (inactive) | 19.1 µM (inactive) | 17.5 µM (inactive) | 12.6 µM (inactive) | 16.2 µM (inactive) | 15.7 µM (inactive) | 21.2 µM (inactive) | 17.2 µM (inactive) | 17.8 µM (inactive) |
| COc1c(-c2ccc(O)c(O)c2)oc2c(O)c(O)cc(O)c2c1=O | 16.9 µM (inactive) | 32.1 µM (inactive) | 39.1 µM (inactive) | > 100 µM (inactive) | 31.8 µM (inactive) | > 100 µM (inactive) | 29.2 µM (inactive) | > 100 µM (inactive) | 45.4 µM (inactive) | 60.3 µM (inactive) | > 100 µM (inactive) | > 100 µM (inactive) | > 100 µM (inactive) | > 100 µM (inactive) | 20 µM (inactive) | 64.6 µM (inactive) | 31 µM (inactive) | > 100 µM (inactive) | 56.8 µM (inactive) | > 100 µM (inactive) |
| Cc1ccc(/C=N\NC(=O)c2ccncc2)s1 | > 100 µM (inactive) | > 100 µM (inactive) | > 100 µM (inactive) | > 100 µM (inactive) | > 100 µM (inactive) | > 100 µM (inactive) | > 100 µM (inactive) | > 100 µM (inactive) | > 100 µM (inactive) | > 100 µM (inactive) | > 100 µM (inactive) | > 100 µM (inactive) | > 100 µM (inactive) | > 100 µM (inactive) | > 100 µM (inactive) | > 100 µM (inactive) | > 100 µM (inactive) | > 100 µM (inactive) | > 100 µM (inactive) | > 100 µM (inactive) |
